# Assay results reported in patent publication US12495798B2, “Nicotinamide compound and herbicidal composition comprising compound” (KOREA RESEARCH INSTITUTE OF CHEMICAL TECHNOLOGY, priority 2019, dated 2025).
# Legend:
# Format in all cases: in vivo
# sorghum = assay: Herbicidal activity test against upland field weeds (foliar treatment test); set-up: key to Foliar treatment herbicidal activity, Sorghum: 0 (no control); 100 (complete control); conditions: 50 g ai/ha, scale 0-100; for plant injury at 50 g/ha: Sorghum
# Method in brief: (§1)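 Greenhouse-grown plants (30±5 °C, 14/10 h light/dark) foliar hand-sprayed with compound in 50% acetone, 0.1% Tween-20 at 50 or 75 g a.i./ha. Control visually scored 0 (none) to 100 (complete) versus untreated after 14 days, or 21 days if needed.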
# quack grass [1] = assay: as above; set-up: key to Foliar treatment herbicidal activity, quack grass: 0 (no control); 100 (complete control); conditions: 50 g ai/ha, scale 0-100
# Method in brief: as §1
# velvetleaf [2] = assay: as above; set-up: key to Foliar treatment herbicidal activity, velvet leaf: 0 (no control); 100 (complete control); conditions: 50 g ai/ha; for pest or weed control at 50 g/ha: Abutilon theophrasti, scale 0-100, read-out: Foliar treatment herbicidal activity, velvet leaf
# Method in brief: as §1
# cocklebur = assay: as above; conditions: 50 g ai/ha, scale 0-100; for pest or weed control at 50 g/ha: Xanthium strumarium
# Method in brief: as §1
# barnyard grass = assay: Herbicidal activity test against upland field weeds (soil treatment test); set-up: key to Soil treatment herbicidal activity, barnyard grass: 0 (no control); 100 (complete control); conditions: 50 g ai/ha, scale 0 (no control) to 100 (complete control); for pest or weed control at 50 g/ha: Echinochloa crus-galli
# Method in brief: (§2)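 Pre-emergence soil surface spray, day after sowing, into sandy loam pots with fertilizer; compounds at 50 or 75 g a.i./ha in 50% acetone, 0.1% Tween-20. Greenhouse at 30±5 °C, 14/10 h light/dark; visual control rated 0–100 against untreated after 14 days (21 if needed).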
# quack grass [3] = assay: as above; set-up: key to Soil treatment herbicidal activity, quack grass: 0 (no control); 100 (complete control); conditions: 50 g ai/ha, scale 0 (no control) to 100 (complete control)
# Method in brief: as §2
# crabgrass = assay: as above; set-up: key to Soil treatment herbicidal activity, Crabgrass: 0 (no control); 100 (complete control); conditions: 50 g ai/ha, scale 0 (no control) to 100 (complete control)
# Method in brief: as §2
# velvetleaf [4] = assay: as above; set-up: key to Soil treatment herbicidal activity, velvet leaf: 0 (no control); 100 (complete control); conditions: 50 g ai/ha, scale 0 (no control) to 100 (complete control)
# Method in brief: as §2
# corn = assay: Phytotoxicity test for upland field crops (foliar treatment test); set-up: key: 0 (no harm); 9 (complete withered)
# Method in brief: (§3)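 Crops grown in greenhouse pots (30±5 °C, 14/10 h light) were foliar-sprayed with compound at 19–300 g a.i./ha in 33% acetone/0.1% Tween-20. Phytotoxicity scored 0 (no harm) to 9 (complete withering) versus untreated control at 7 and 14 days, 21 if needed.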
# cotton = assay: as above; set-up: key: 0 (no harm); 9 (complete withered)
# Method in brief: as §3
# rice = assay: as above; set-up: key: 0 (no harm); 9 (complete withered)
# Method in brief: as §3
# soybean = assay: as above; set-up: key: 0 (no harm); 9 (complete withered)
# Method in brief: as §3
# wheat = assay: as above; set-up: key: 0 (no harm); 9 (complete withered)
# Method in brief: as §3
# [5] = 50 g ai/ha, Corn (7 days after treatment)
# [6] = 50 g ai/ha, Corn (14 days after treatment)
# [7] = 100 g ai/ha, Corn (7 days after treatment)
# [8] = 100 g ai/ha, Corn (14 days after treatment)
# [9] = 50 g ai/ha, Cotton (7 days after treatment)
# [10] = 50 g ai/ha, Cotton (14 days after treatment)
# [11] = 100 g ai/ha, Cotton (7 days after treatment)
# [12] = 100 g ai/ha, Cotton (14 days after treatment)
# [13] = 50 g ai/ha, Rice (7 days after treatment)
# [14] = 50 g ai/ha, Rice (14 days after treatment)
# [15] = 100 g ai/ha, Rice (7 days after treatment)
# [16] = 100 g ai/ha, Rice (14 days after treatment)
# [17] = 50 g ai/ha, Soybean (7 days after treatment)
# [18] = 50 g ai/ha, Soybean (14 days after treatment)
# [19] = 100 g ai/ha, Soybean (7 days after treatment)
# [20] = 100 g ai/ha, Soybean (14 days after treatment)
# [21] = 50 g ai/ha, Wheat (7 days after treatment)
# [22] = 50 g ai/ha, Wheat (14 days after treatment)
# [23] = 100 g ai/ha, Wheat (7 days after treatment)
# [24] = 100 g ai/ha, Wheat (14 days after treatment)
SMILES,"Soil treatment herbicidal activity, quack grass (quack grass [3])","Soil treatment herbicidal activity, velvet leaf (velvetleaf [4])","Foliar treatment phytotoxicity, Corn (corn; [5])","Foliar treatment phytotoxicity, Corn (corn; [6])","Foliar treatment phytotoxicity, Corn (corn; [7])","Foliar treatment phytotoxicity, Corn (corn; [8])","Foliar treatment phytotoxicity, Cotton (cotton; [9])","Foliar treatment phytotoxicity, Cotton (cotton; [10])","Foliar treatment phytotoxicity, Cotton (cotton; [11])","Foliar treatment phytotoxicity, Cotton (cotton; [12])","Foliar treatment phytotoxicity, Rice (rice; [13])","Foliar treatment phytotoxicity, Rice (rice; [14])","Foliar treatment phytotoxicity, Rice (rice; [15])","Foliar treatment phytotoxicity, Rice (rice; [16])","Foliar treatment phytotoxicity, Soybean (soybean; [17])","Foliar treatment phytotoxicity, Soybean (soybean; [18])","Foliar treatment phytotoxicity, Soybean (soybean; [19])","Foliar treatment phytotoxicity, Soybean (soybean; [20])","Foliar treatment phytotoxicity, Wheat (wheat; [21])","Foliar treatment phytotoxicity, Wheat (wheat; [22])",further results
"Cn1nnc(COCc2nc(C(F)F)ccc2C(=O)Nc2nnnn2C)n1 [Compound No. 2-84, 6-(difluoromethyl)-N-(1-methyl-1H-tetrazol-5-yl)-2-(((2-methyl-2H-tetrazol-5-yl)methoxy)methyl)nicotinamide]",0,100,2,1,3,4,5,9,5,9,6,7,6,9,6,7,6,8,0,0,"plant injury at 50 g/ha (sorghum): 90%; Foliar treatment herbicidal activity, quack grass (quack grass [1]): 0; pest or weed control at 50 g/ha (velvetleaf [2]): 98%; pest or weed control at 50 g/ha (cocklebur): 95%; pest or weed control at 50 g/ha (barnyard grass): 70%; pest or weed control at 50 g/ha (crabgrass; Digitaria sanguinalis): 80%; Foliar treatment phytotoxicity, Wheat (wheat; [23]): 0; Foliar treatment phytotoxicity, Wheat (wheat; [24]): 0"
"Cn1ncnc1COc1nc(C(F)(F)F)ccc1C(=O)Nc1nnnn1C [Compound No. 1-45, 2-((1-methyl-1H-1,2,4-triazol-5-yl)methoxy)-N-(1-methyl-1H-tetrazol-5-yl)-6-(trifluoromethyl)nicotinamide]",0,100,1,0,3,2,5,9,5,9,6,9,6,9,6,7.5,7,9,0,0,"plant injury at 50 g/ha (sorghum): 50%; pest or weed control at 50 g/ha (quack grass [1]): 40%; pest or weed control at 50 g/ha (velvetleaf [2]): 80%; pest or weed control at 50 g/ha (cocklebur): 95%; pest or weed control at 50 g/ha (barnyard grass): 98%; Soil treatment herbicidal activity, Crabgrass (crabgrass): 100; Foliar treatment phytotoxicity, Wheat (wheat; [23]): 0; Foliar treatment phytotoxicity, Wheat (wheat; [24]): 0"
"COC(=O)OC(C)N(C(=O)c1ccc(C(F)(F)F)nc1COCc1nnn(C)n1)c1nnnn1C (stereo not shown) [Compound No. 4-4, methyl(1-(N-(1-methyl-1H-tetrazol-5-yl)-2-(((2-methyl-2H-tetrazol-5-yl)methoxy)methyl)-6-(trifluoromethyl)nicotinamido)ethyl)carbonate]",0,100,0,0,0,0,0,0,0,0,4,4,4,4,0,0,0,0,1,0,"Foliar treatment herbicidal activity, Sorghum (sorghum): 100; Foliar treatment herbicidal activity, quack grass (quack grass [1]): 0; Foliar treatment herbicidal activity, velvet leaf (velvetleaf [2]; scale 0-100): 100; Foliar treatment herbicidal activity, Cocklebur (cocklebur): 98; Soil treatment herbicidal activity, barnyard grass (barnyard grass): 0; Soil treatment herbicidal activity, Crabgrass (crabgrass): 0; Foliar treatment phytotoxicity, Wheat (wheat; [23]): 2; Foliar treatment phytotoxicity, Wheat (wheat; [24]): 2"
"Cn1nnc(COCc2nc(C(F)(F)Cl)ccc2C(=O)Nc2nnnn2C)n1 [Compound No. 2-78, 6-(chlorodifluoromethyl)-N-(1-methyl-1H-tetrazol-5-yl)-2-(((2-methyl-2H-tetrazol-5-yl)methoxy)methyl)nicotinamide]",0,100,2,1,3,1,5,9,6,9,5,4,6,5,5,5,6,6,0,0,"plant injury at 50 g/ha (sorghum): 30%; Foliar treatment herbicidal activity, quack grass (quack grass [1]): 0; pest or weed control at 50 g/ha (velvetleaf [2]): 60%; pest or weed control at 50 g/ha (cocklebur): 60%; Soil treatment herbicidal activity, barnyard grass (barnyard grass): 100; Soil treatment herbicidal activity, Crabgrass (crabgrass): 100; Foliar treatment phytotoxicity, Wheat (wheat; [23]): 0; Foliar treatment phytotoxicity, Wheat (wheat; [24]): 0"
